In US7018988B2, “Pharmaceutically active pyrrolidine derivatives as Bax inhibitors” (Applied Research Systems ARS Holding N.V., priority 2000, dated 2006):

Target: T1, Bax (Homo sapiens, UniProt Q07812)
T1 construct: endogenous in cells; host or cells: mitochondria isolated from HeLa cells
Assay: Effect of compounds on the release of cytochrome c triggered by Bid-induced Bax activation (in vitro assay d)
Type: biochemical
Settings: compound at 10 μM; mitochondria isolated from HeLa cells; 10 nM recombinant Bid
Experimental: d) Effect of Compounds according to formula I onto the Release of Cytochrome c Trig-gered by Bid-Induced Bax Activation (In Vitro Assay)
Concerning the Bid-induced activation of Bax leading to mitochondrial Cytochrome C release, it is referred to the description of Martinou et al. in The Journal of Cell Biology, Vol. 144, No. 5, Mar. 8, 1999, pages 891–901. Mitochondria isolated from HeLa cells are incubated for 15 min at 30° C. in 100 μl of KCl buffer in the presence or absence of 10 nM recombinant Bid. The various compounds (10 μM) are pre-incubated for 5 min prior to addition of Bid. Following incubation, mitochondria were centrifuged for 5 min at 13000 g at 4° C. and the supernatant is collected for cytochrome c analysis. Cytochrome c is detected by Western blotting. The cytochrome c bands are scanned and quantified using a Bio-Rad (GS-700 Imaging Densitometer).
The above set out 2 in vitro assays c) and d) involving the determination of mitochondrial cytochrome c release are based on immunochemical methods using the Western blot analysis. […]

T1 sequence (Q07812 whole entry): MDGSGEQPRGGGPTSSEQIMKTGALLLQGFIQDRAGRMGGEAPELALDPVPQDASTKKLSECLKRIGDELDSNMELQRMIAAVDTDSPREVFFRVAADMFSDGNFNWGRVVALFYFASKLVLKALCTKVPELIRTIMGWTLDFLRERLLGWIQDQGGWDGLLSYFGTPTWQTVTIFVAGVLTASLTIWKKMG

| inhibition at 10 µM [%] | Compound |
| --- | --- |
| ~59 | CCCCCNC(=O)N1CC(=NOC)C[C@H]1C(=O)N1CCN(Cc2ccc3c(c2)OCO3)CC1 [Example 28, (2S,4EZ)-2-{[4-(1,3-benzodioxol-5-ylmethyl)-1-piperazinyl]carbonyl}-4-(methoxyimino)-N-pentyl-1-pyrrolidinecarboxamide] |
| ~79 | CCCCCNC(=O)N1CC(=NOC)C[C@H]1C(=O)NCCO [Example 23, (2S,4EZ)-N^2-(2-hydroxyethyl)-4-(methoxyimino)-N^1-pentyl-1,2-pyrrolidinedicarboxamide] |
